In patent US20140249573A1, “METHODS AND DEVICES FOR OCCLUDING BLOOD FLOW TO AN ORGAN” (A.A. CASH TECHNOLOGY LTD., priority 2011, published 2014):
Where “and” joins values, the source holds several entries; their conditions need not be identical. Identical values can stand only once.

Experiments:
lymphocyte = settings: three female pigs, 60 mg/kg IV over 1 hour, the following day
Method: The protocol and design of all parts of this study were approved by the Animal Research Ethics Committee of Israel. Three female pigs (The Institute of Animal Research, Kibbutz Lahav, Israel) weighing 60 Kg each, were anesthetized with 10 mg/kg intramuscular ketamine hydrochloride and 4 mg/kg xylazine hydrochloride (Vetmarket, Israel). One ovary of each pig was exposed by a longitudinal midline incision. A conventional gastric band (Lap-band; Allergen, Irvine, Calif., USA) was modified according to some embodiments of the invention, to occlude blood flow to the ovaries. The band was wound around the ovarian hilum, and a zip tie was placed on the center of the band ring to reduce the diameter of the band's aperture. 10 ml saline was injected via the band's port thus completely blocking blood flow through the ovarian and uterine arteries and veins. The color and the morphology of the ovary were observed after occlusion of blood flow as well as after the bands were released. The other ovary in each pig was left unprotected (i.e. was left with natural blood flow, and thus completely exposed to chemotherapy). Heparin was administered intravenously before occlusion to prevent or reduce blood coagulation within the ovary throughout the occlusion time interval and a few hours thereafter. A control pig was left untreated. […]

ovary = settings: eight days after treatment
Method: The protocol and design of all parts of this study were approved by the Animal Research Ethics Committee of Israel. Three female pigs (The Institute of Animal Research, Kibbutz Lahav, Israel) weighing 60 Kg each, were anesthetized with 10 mg/kg intramuscular ketamine hydrochloride and 4 mg/kg xylazine hydrochloride (Vetmarket, Israel). One ovary of each pig was exposed by a longitudinal midline incision. A conventional gastric band (Lap-band; Allergen, Irvine, Calif., USA) was modified according to some embodiments of the invention, to occlude blood flow to the ovaries. The band was wound around the ovarian hilum, and a zip tie was placed on the center of the band ring to reduce the diameter of the band's aperture. 10 ml saline was injected via the band's port thus completely blocking blood flow through the ovarian and uterine arteries and veins. The color and the morphology of the ovary were observed after occlusion of blood flow as well as after the bands were released. The other ovary in each pig was left unprotected (i.e. was left with natural blood flow, and thus completely exposed to chemotherapy). Heparin was administered intravenously before occlusion to prevent or reduce blood coagulation within the ovary throughout the occlusion time interval and a few hours thereafter. A control pig was left untreated.
The ovaries blood supply was occluded for 16 hours after the drug administration interval (i.e. a total occlusion time interval exceeding 17 hours). The bands were then opened by drawing out the 10 ml of saline via the port.
Eight days after the chemo treatment the pigs were euthanized according to animal ethics procedures and the ovaries were removed and examined visually, removed, weighed and follicles were counted.

SMILES: O=P1(N(CCCl)CCCl)NCCCO1 (stereo not shown) [Cyclophosphamide]
- lymphocyte counts, decreased to % of the initial level (lymphocyte): 12%
- size and number of follicles of occluded (protected) ovaries (ovary; all ovaries occluded during chemotherapy administration): comparable to the control animal
- Weight of ovary, Occluded (ovary; ovary with blood supply occluded by band for more than 17 hours, 60 mg/kg IV over 1 hour, one value per pig, 60 mg/kg): 3.6 gr and 3.8 gr and 5.2 gr
- visual appearance of unprotected ovaries (ovary; unprotected ovaries, in two of the three animals): visible signs of atrophy
